Experimental data from ChEMBL document CHEMBL3885881, “DrugMatrix”.

Species: Rattus norvegicus
Assay: DrugMatrix - Regimen: Daily Repeat
Assay type: toxicity, organism-based, Sprague-Dawley
Design: regimen Daily Repeat, gender Male, age 6-8 weeks
Details: in vivo, po, route oral GAVAGE, vehicle 100 % WATER; for ABSOLUTE BASOPHIL / ABSOLUTE EOSINOPHIL / ABSOLUTE LYMPHOCYTE / ABSOLUTE MONOCYTE / ABSOLUTE SEGMENTED NEUTROPHIL / BASOPHIL / EOSINOPHIL / ERYTHROCYTE COUNT / HEMATOCRIT / HEMOGLOBIN / LEUKOCYTE COUNT / LYMPHOCYTE / MEAN CORPUSCULAR HEMOGLOBIN / MEAN CORPUSCULAR HEMOGLOBIN CONCENTRATION / MEAN CORPUSCULAR VOLUME / MONOCYTE / NEUTROPHIL / NUCLEATED RED BLOOD CELLS / PLATELET COUNT: tissue Blood; for ALANINE AMINOTRANSFERASE / ALBUMIN / ALKALINE PHOSPHATASE / ASPARTATE AMINOTRANSFERASE / BLOOD UREA NITROGEN / CARBON DIOXIDE / CHLORIDE / CHOLESTEROL / CREATINE PHOSPHOKINASE / CREATININE / GLUCOSE / LACTATE DEHYDROGENASE / LIPASE / PHOSPHORUS / POTASSIUM / SODIUM / TOTAL BILIRUBIN / TOTAL PROTEIN / URIC ACID: tissue Plasma
[1] = 0 mg/kg, 72 h, dose level Control, time 3 day
[2] = 0 mg/kg, 120 h, dose level Control, time 5 day
[3] = 15 mg/kg, 72 h, dose level Low, time 3 day
[4] = 15 mg/kg, 120 h, dose level Low, time 5 day

COC(=O)C1=C(C)NC(C)=C(C(=O)OCC(C)C)C1c1ccccc1[N+](=O)[O-] (configuration not stated) [NISOLDIPINE]
ABSOLUTE BASOPHIL [1]: 0 CELLS/uL
ABSOLUTE EOSINOPHIL [1]: 0 CELLS/uL
ABSOLUTE LYMPHOCYTE [1]: 7802.17 CELLS/uL
ABSOLUTE MONOCYTE [1]: 13.5 CELLS/uL
ABSOLUTE SEGMENTED NEUTROPHIL [1]: 617.67 CELLS/uL
BASOPHIL [1]: 0%
EOSINOPHIL [1]: 0%
ERYTHROCYTE COUNT [1]: 5.35 x10E6/uL
HEMATOCRIT [1]: 33.02%
HEMOGLOBIN [1]: 12.88 G/DL
LEUKOCYTE COUNT [1]: 8.43 x10E3/uL
LYMPHOCYTE [1]: 92.67%
MEAN CORPUSCULAR HEMOGLOBIN [1]: 24.12 pg
MEAN CORPUSCULAR HEMOGLOBIN CONCENTRATION [1]: 39.03 G/DL
MEAN CORPUSCULAR VOLUME [1]: 61.8 fL
MONOCYTE [1]: 0.17%
NEUTROPHIL [1]: 7.17%
NUCLEATED RED BLOOD CELLS [1]: 0 /100WBC
PLATELET COUNT [1]: 1124.83 x10E3/uL
ALANINE AMINOTRANSFERASE [1]: 54.17 u/L
ALBUMIN [1]: 4.07 G/DL
ALKALINE PHOSPHATASE [1]: 383.83 u/L
ASPARTATE AMINOTRANSFERASE [1]: 82.17 u/L
BLOOD UREA NITROGEN [1]: 13.67 mg/dL
CARBON DIOXIDE [1]: 31 mmol/L
CHLORIDE [1]: 100.83 MEQ/L
CHOLESTEROL [1]: 65.17 mg/dL
CREATINE PHOSPHOKINASE [1]: 228.33 u/L
CREATININE [1]: 0.12 mg/dL
GLUCOSE [1]: 148 mg/dL
LACTATE DEHYDROGENASE [1]: 97.83 u/L
LIPASE [1]: 9.17 u/L
PHOSPHORUS [1]: 9.75 mg/dL
POTASSIUM [1]: 5.85 MEQ/L
SODIUM [1]: 147.02 MEQ/L
TOTAL BILIRUBIN [1]: 0.18 mg/dL
TOTAL PROTEIN [1]: 6.1 G/DL
URIC ACID [1]: 0.5 mg/dL
ABSOLUTE BASOPHIL [2]: 0 CELLS/uL
ABSOLUTE EOSINOPHIL [2]: 0 CELLS/uL
ABSOLUTE LYMPHOCYTE [2]: 10538 CELLS/uL
ABSOLUTE MONOCYTE [2]: 15.83 CELLS/uL
ABSOLUTE SEGMENTED NEUTROPHIL [2]: 762.83 CELLS/uL
BASOPHIL [2]: 0%
EOSINOPHIL [2]: 0%
ERYTHROCYTE COUNT [2]: 5.49 x10E6/uL
HEMATOCRIT [2]: 34.63%
HEMOGLOBIN [2]: 13.72 G/DL
LEUKOCYTE COUNT [2]: 11.32 x10E3/uL
LYMPHOCYTE [2]: 92.67%
MEAN CORPUSCULAR HEMOGLOBIN [2]: 24.97 pg
MEAN CORPUSCULAR HEMOGLOBIN CONCENTRATION [2]: 39.57 G/DL
MEAN CORPUSCULAR VOLUME [2]: 63.05 fL
MONOCYTE [2]: 0.17%
NEUTROPHIL [2]: 7.17%
NUCLEATED RED BLOOD CELLS [2]: 0.17 /100WBC
PLATELET COUNT [2]: 802 x10E3/uL
ALANINE AMINOTRANSFERASE [2]: 50.5 u/L
ALBUMIN [2]: 4.07 G/DL
ALKALINE PHOSPHATASE [2]: 336.83 u/L
ASPARTATE AMINOTRANSFERASE [2]: 81 u/L
BLOOD UREA NITROGEN [2]: 14.17 mg/dL
CARBON DIOXIDE [2]: 32 mmol/L
CHLORIDE [2]: 98.33 MEQ/L
CHOLESTEROL [2]: 69.17 mg/dL
CREATINE PHOSPHOKINASE [2]: 253.33 u/L
CREATININE [2]: 0.13 mg/dL
GLUCOSE [2]: 153.67 mg/dL
LACTATE DEHYDROGENASE [2]: 157 u/L
LIPASE [2]: 9 u/L
PHOSPHORUS [2]: 10.78 mg/dL
POTASSIUM [2]: 6.11 MEQ/L
SODIUM [2]: 144.57 MEQ/L
TOTAL BILIRUBIN [2]: 0.15 mg/dL
TOTAL PROTEIN [2]: 6.05 G/DL
URIC ACID [2]: 0.73 mg/dL
ABSOLUTE BASOPHIL [3]: 0 CELLS/uL
ABSOLUTE EOSINOPHIL [3]: 0 CELLS/uL
ABSOLUTE LYMPHOCYTE [3]: 6241.33 CELLS/uL
ABSOLUTE MONOCYTE [3]: 67 CELLS/uL
ABSOLUTE SEGMENTED NEUTROPHIL [3]: 425 CELLS/uL
BASOPHIL [3]: 0%
EOSINOPHIL [3]: 0%
ERYTHROCYTE COUNT [3]: 5.19 x10E6/uL
HEMATOCRIT [3]: 32.73%
HEMOGLOBIN [3]: 12.7 G/DL
LEUKOCYTE COUNT [3]: 6.73 x10E3/uL
LYMPHOCYTE [3]: 92.67%
MEAN CORPUSCULAR HEMOGLOBIN [3]: 24.5 pg
MEAN CORPUSCULAR HEMOGLOBIN CONCENTRATION [3]: 38.83 G/DL
MEAN CORPUSCULAR VOLUME [3]: 63.1 fL
MONOCYTE [3]: 1%
NEUTROPHIL [3]: 6.33%
NUCLEATED RED BLOOD CELLS [3]: 0 /100WBC
PLATELET COUNT [3]: 1002.33 x10E3/uL
ALANINE AMINOTRANSFERASE [3]: 56 u/L
ALBUMIN [3]: 4.03 G/DL
ALKALINE PHOSPHATASE [3]: 297.33 u/L
ASPARTATE AMINOTRANSFERASE [3]: 80.67 u/L
BLOOD UREA NITROGEN [3]: 11.67 mg/dL
CARBON DIOXIDE [3]: 30.67 mmol/L
CHLORIDE [3]: 100 MEQ/L
CHOLESTEROL [3]: 89.67 mg/dL
CREATINE PHOSPHOKINASE [3]: 318.67 u/L
CREATININE [3]: 0.11 mg/dL
GLUCOSE [3]: 147.67 mg/dL
LACTATE DEHYDROGENASE [3]: 95.33 u/L
LIPASE [3]: 13 u/L
PHOSPHORUS [3]: 9.1 mg/dL
POTASSIUM [3]: 5.7 MEQ/L
SODIUM [3]: 145.35 MEQ/L
TOTAL BILIRUBIN [3]: 0.1 mg/dL
TOTAL PROTEIN [3]: 5.77 G/DL
URIC ACID [3]: 0.47 mg/dL
ABSOLUTE BASOPHIL [4]: 0 CELLS/uL
ABSOLUTE EOSINOPHIL [4]: 0 CELLS/uL
ABSOLUTE LYMPHOCYTE [4]: 9912 CELLS/uL
ABSOLUTE MONOCYTE [4]: 68 CELLS/uL
ABSOLUTE SEGMENTED NEUTROPHIL [4]: 453.33 CELLS/uL
BASOPHIL [4]: 0%
EOSINOPHIL [4]: 0%
ERYTHROCYTE COUNT [4]: 5.6 x10E6/uL
HEMATOCRIT [4]: 34.7%
HEMOGLOBIN [4]: 13.63 G/DL
LEUKOCYTE COUNT [4]: 10.43 x10E3/uL
LYMPHOCYTE [4]: 95.33%
MEAN CORPUSCULAR HEMOGLOBIN [4]: 24.43 pg
MEAN CORPUSCULAR HEMOGLOBIN CONCENTRATION [4]: 39.3 G/DL
MEAN CORPUSCULAR VOLUME [4]: 62.07 fL
MONOCYTE [4]: 0.67%
NEUTROPHIL [4]: 4%
NUCLEATED RED BLOOD CELLS [4]: 0 /100WBC
PLATELET COUNT [4]: 1086 x10E3/uL
ALANINE AMINOTRANSFERASE [4]: 51 u/L
ALBUMIN [4]: 4.13 G/DL
ALKALINE PHOSPHATASE [4]: 346 u/L
ASPARTATE AMINOTRANSFERASE [4]: 74 u/L
BLOOD UREA NITROGEN [4]: 13.67 mg/dL
CARBON DIOXIDE [4]: 36.67 mmol/L
CHLORIDE [4]: 98.67 MEQ/L
CHOLESTEROL [4]: 67.33 mg/dL
CREATINE PHOSPHOKINASE [4]: 223.67 u/L
CREATININE [4]: 0.13 mg/dL
GLUCOSE [4]: 139.67 mg/dL
LACTATE DEHYDROGENASE [4]: 96.33 u/L
LIPASE [4]: 9 u/L
PHOSPHORUS [4]: 9.5 mg/dL
POTASSIUM [4]: 6.07 MEQ/L
SODIUM [4]: 144.53 MEQ/L
TOTAL BILIRUBIN [4]: 0.17 mg/dL
TOTAL PROTEIN [4]: 6.17 G/DL
URIC ACID [4]: 0.67 mg/dL
